The results in this text go back to ChEMBL document CHEMBL1141196, “Grafting aminocyclopentane carboxylic acids onto the RGD tripeptide sequence generates low nanomolar alphaVbeta3/alphaVbeta5 integrin dual binders” (J Med Chem, 2005).

In general, IC50 refers to the midpoint of a concentration-inhibition curve. Read a low IC50 as higher potency.

For one experiment, the target named is Integrin alpha-V/beta-3 (Homo sapiens, UniProt P05106+P06756). As to the kind of experiment: Displacement of [125I]-echistatin from alphavbeta3 integrin receptor. In kind it is protein-complex assay. On the technique in general: In a radioligand displacement assay an active substance lowers the binding of a labelled ligand.
The target of the next experiment is Integrin alpha-V/beta-5 (Homo sapiens, UniProt P06756+P18084). In words: Displacement of [125I]-echistatin from alpha-v-beta-5 integrin receptor. The experiment is classed as protein-complex assay.

SMILES strings stand for the structures.

Sequence of Integrin alpha-V/beta-3 (P05106 27-788 limits assumed): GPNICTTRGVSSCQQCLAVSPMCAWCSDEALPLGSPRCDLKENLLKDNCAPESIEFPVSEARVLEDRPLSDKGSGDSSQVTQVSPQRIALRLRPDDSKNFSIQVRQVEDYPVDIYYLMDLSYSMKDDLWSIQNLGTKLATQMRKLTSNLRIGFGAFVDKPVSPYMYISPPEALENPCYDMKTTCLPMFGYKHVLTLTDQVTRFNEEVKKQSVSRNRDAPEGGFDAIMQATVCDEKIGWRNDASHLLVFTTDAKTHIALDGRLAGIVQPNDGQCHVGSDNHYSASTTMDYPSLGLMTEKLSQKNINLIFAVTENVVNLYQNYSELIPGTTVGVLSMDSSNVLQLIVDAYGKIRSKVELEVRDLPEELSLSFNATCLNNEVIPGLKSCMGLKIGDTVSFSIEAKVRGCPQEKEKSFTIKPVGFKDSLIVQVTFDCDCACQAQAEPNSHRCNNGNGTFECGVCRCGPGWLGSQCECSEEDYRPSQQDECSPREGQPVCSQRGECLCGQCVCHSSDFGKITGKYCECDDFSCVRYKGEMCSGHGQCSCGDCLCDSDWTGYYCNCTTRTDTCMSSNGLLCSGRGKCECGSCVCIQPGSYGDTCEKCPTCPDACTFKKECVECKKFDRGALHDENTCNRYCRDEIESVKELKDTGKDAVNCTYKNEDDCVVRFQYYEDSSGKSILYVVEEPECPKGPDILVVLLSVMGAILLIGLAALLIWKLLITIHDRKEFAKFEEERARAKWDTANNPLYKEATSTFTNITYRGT
Sequence of Integrin alpha-V/beta-3 (P06756 31-889 limits assumed): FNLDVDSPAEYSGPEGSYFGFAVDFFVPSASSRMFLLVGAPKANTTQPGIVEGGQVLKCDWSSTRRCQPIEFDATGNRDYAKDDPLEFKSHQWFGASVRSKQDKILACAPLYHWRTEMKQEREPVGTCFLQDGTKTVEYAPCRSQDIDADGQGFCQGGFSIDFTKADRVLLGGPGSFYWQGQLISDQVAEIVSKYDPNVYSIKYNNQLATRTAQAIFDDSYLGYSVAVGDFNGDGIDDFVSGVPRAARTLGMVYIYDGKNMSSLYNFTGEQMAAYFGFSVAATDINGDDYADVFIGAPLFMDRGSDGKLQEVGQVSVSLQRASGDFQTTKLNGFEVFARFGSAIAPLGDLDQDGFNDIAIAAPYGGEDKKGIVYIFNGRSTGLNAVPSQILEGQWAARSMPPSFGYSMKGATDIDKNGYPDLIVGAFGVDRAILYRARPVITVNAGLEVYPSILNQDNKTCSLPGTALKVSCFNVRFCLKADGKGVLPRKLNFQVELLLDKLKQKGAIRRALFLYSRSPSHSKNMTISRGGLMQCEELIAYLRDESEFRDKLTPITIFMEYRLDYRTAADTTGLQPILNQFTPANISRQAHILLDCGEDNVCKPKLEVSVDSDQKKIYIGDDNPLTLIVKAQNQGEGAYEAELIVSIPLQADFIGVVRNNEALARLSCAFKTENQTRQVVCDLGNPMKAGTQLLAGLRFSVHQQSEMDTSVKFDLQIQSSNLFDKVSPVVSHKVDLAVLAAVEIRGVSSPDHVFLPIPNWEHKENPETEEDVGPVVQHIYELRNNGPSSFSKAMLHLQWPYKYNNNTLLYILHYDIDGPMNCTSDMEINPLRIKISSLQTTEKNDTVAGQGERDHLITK
Sequence of Integrin alpha-V/beta-3 (P06756 891-1048 limits assumed): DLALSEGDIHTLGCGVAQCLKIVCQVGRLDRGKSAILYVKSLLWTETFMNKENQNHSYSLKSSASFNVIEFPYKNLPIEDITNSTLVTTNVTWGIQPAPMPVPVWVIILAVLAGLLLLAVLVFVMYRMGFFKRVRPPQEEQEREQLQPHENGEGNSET
Sequence of Integrin alpha-V/beta-5 (P06756 31-889 limits assumed): as the sequence (P06756 31-889 limits assumed) above
Sequence of Integrin alpha-V/beta-5 (P06756 891-1048 limits assumed): as the sequence (P06756 891-1048 limits assumed) above
Sequence of Integrin alpha-V/beta-5 (P18084 24-799 limits assumed): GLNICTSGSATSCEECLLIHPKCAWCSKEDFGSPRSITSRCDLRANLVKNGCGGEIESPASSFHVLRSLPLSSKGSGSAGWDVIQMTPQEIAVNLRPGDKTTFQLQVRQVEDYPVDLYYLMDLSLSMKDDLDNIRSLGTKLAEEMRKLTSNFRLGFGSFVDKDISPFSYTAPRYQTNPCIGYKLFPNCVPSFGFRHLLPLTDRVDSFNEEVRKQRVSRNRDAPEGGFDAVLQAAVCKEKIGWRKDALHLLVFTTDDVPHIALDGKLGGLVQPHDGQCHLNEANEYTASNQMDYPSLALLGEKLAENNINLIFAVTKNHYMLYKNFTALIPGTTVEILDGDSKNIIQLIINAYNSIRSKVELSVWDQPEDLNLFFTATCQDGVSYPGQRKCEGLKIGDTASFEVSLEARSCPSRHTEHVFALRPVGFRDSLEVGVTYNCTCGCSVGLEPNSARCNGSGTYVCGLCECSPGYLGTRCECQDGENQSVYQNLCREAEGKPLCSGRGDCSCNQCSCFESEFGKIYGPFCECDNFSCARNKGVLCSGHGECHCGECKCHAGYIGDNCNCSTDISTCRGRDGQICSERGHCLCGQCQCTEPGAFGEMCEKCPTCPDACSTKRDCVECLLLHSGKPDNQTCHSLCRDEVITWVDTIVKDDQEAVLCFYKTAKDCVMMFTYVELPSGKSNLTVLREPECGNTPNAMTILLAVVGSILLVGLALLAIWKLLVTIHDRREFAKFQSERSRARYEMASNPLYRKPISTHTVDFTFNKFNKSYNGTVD

Turning to `NC(N)=NCCC[C@@H]1NC(=O)[C@H]2CC[C@@H]3CCC[C@H](NC(=O)[C@H](CC(=O)O)NC(=O)CNC1=O)C(=O)N32`, the half-inhibitory concentration (IC50) on Integrin alpha-V/beta-3 was 1.4 nM; on Integrin alpha-V/beta-5 it was 1.16 nM.
The matching figures for `N=C(N)NCCC[C@@H]1NC(=O)[C@@H]2C[C@H](NC(=O)[C@H](CC(=O)O)NC(=O)CNC1=O)[C@@H](O)[C@@H]2O`: 44.7 nM and 125 nM.
For the molecule `N=C(N)NCCC[C@@H]1NC(=O)[C@H]2CC[C@@H](C2)NC(=O)[C@H](CC(=O)O)NC(=O)CNC1=O`, the IC50 stood at 9.93 nM on Integrin alpha-V/beta-3 and 26 nM on Integrin alpha-V/beta-5.
As for `N=C(N)NCCC[C@@H]1NC(=O)[C@@H]2C[C@@H](O)[C@@H](C2)NC(=O)[C@H](CC(=O)O)NC(=O)CNC1=O`, the values for the half-maximal inhibitory concentration (IC50) on Integrin alpha-V/beta-3 and at Integrin alpha-V/beta-5 were 7.2 nM and 13.1 nM, respectively.
For `N=C(N)NCCC[C@@H]1NC(=O)[C@H]2C[C@H](NC(=O)[C@H](CC(=O)O)NC(=O)CNC1=O)[C@@H](O)C2`, in that order: 35.6 nM and 29.6 nM.
For `N=C(N)NCCC[C@@H]1NC(=O)[C@H]2CC[C@H](C2)NC(=O)[C@H](CC(=O)O)NC(=O)CNC1=O`, in that order: 4.6 nM and 3.43 nM.
For `N=C(N)NCCC[C@@H]1NC(=O)[C@H]2C[C@@H](NC(=O)[C@H](CC(=O)O)NC(=O)CNC1=O)[C@H](O)[C@H]2O`, in that order: 133 nM and 411 nM.
`N=C(N)NCCC[C@@H]1NC(=O)[C@@H]2C[C@H](NC(=O)[C@H](CC(=O)O)NC(=O)CNC1=O)[C@@H](O)[C@H]2O`: the IC50 amounted to 51.4 nM at Integrin alpha-V/beta-3 and 166 nM on Integrin alpha-V/beta-5.
The matching figures for `N=C(N)NCCC[C@@H]1NC(=O)[C@H]2C[C@@H](NC(=O)[C@H](CC(=O)O)NC(=O)CNC1=O)[C@H](O)[C@@H]2O`: 713 nM and 1300 nM.
For `N=C(N)NCCC[C@@H]1NC(=O)[C@@H]2CC[C@@H](C2)NC(=O)[C@H](CC(=O)O)NC(=O)CNC1=O`, in that order: 7.7 nM and 6.56 nM.
For `N=C(N)NCCC[C@@H]1NC(=O)[C@@H]2CC[C@H](C2)NC(=O)[C@H](CC(=O)O)NC(=O)CNC1=O`, in that order: 1.5 nM and 0.59 nM.
With `N=C(N)NCCC[C@@H]1NC(=O)[C@@H]2C[C@H](NC(=O)[C@H](CC(=O)O)NC(=O)CNC1=O)[C@@H](O)C2`, the half-maximal inhibitory concentration (IC50) on Integrin alpha-V/beta-3 was 5.6 nM; at Integrin alpha-V/beta-5, 4.56 nM.
